Data taken from article PMC8674134, “Safety and efficacy of avapritinib in advanced systemic mastocytosis: the phase 1 EXPLORER trial” (Nature Medicine, 2021).

System: advanced systemic mastocytosis (AdvSM)
Test: Centrally adjudicated response by mIWG-MRT-ECNM criteria (ORR, best response, time to response, C-finding improvement)
Type: in vivo, human
Description: The primary endpoints were MTD, RP2D and assessment of safety. Secondary endpoints included the ORR based on measurable C-finding responses per mIWG-MRT-ECNM criteria, which require 12-week confirmation of response. Responses in C-findings were centrally adjudicated by a Response Adjudication Committee (RAC) comprising a subset of study investigators (see below for further details and a list of RAC members). ORR included: CR or CRh (including complete resolution of all C-findings, elimination of marrow mast cell aggregates and serum tryptase <20 ng ml^−1); PR (resolution of ≥1 C-finding and ≥50% reduction in marrow mast cells and serum tryptase); and clinical improvement (resolution of ≥1 C-finding).
The safety population included all enrolled patients and was used to report AEs and PROs (in those who completed the questionnaire). The dose-determining population included all patients in a cohort in part 1 who received ≥21 prescribed avapritinib doses in C1 and completed follow-up through C1, or experienced DLT. The determination of the MTD and RP2D were based on the dose-determining population. […] The AdvSM safety population was also used to report AEs and OS. […] The response-evaluable population was used to report adjudicated response rates and PFS. The PK population comprised all patients with sufficient plasma concentration–time data to reliably estimate the PK parameters of avapritinib.
ORR was defined as the proportion of patients with a confirmed best response of CR, CRh, PR or clinical improvement by mIWG-MRT-ECNM consensus criteria. Time to CR/CRh/PR was defined as the time from the start of treatment to the time a CR/CRh/PR by mIWG-MRT-ECNM was first met. DOR was defined as the time from first documented response to the date of first documented progressive disease/loss of response or death due to any cause, whichever occurred first. OS was defined as the time from the start of treatment to the date of death. PFS was defined as the time from the start of treatment to the date of first documented progressive disease or death due to any cause, whichever occurred first. Progressive disease was defined per mIWG-MRT-ECNM criteria as worsening of ≥1 baseline C-finding confirmed for at least 4 weeks, or progression to acute myeloid leukemia.
Primary ORR analysis was based on RAC-adjudicated responses in the response-evaluable population. ORR was estimated using frequency, percentage and two-sided 95% CIs based on the exact binomial distribution (Clopper–Pearson). Statistical testing on binomial proportion against a null of 28% was performed using one-sided α = 0.025. Wald test P value was presented. CR + CRh + PR rate was summarized similarly as ORR. Statistical testing on binomial proportion against a null of 17% was performed using one-sided α = 0.025.

[1] = 53 response-evaluable patients, mIWG-MRT-ECNM
[2] = Prior midostaurin exposure (n = 17)
[3] = of 2 patients with C-finding at baseline, response-evaluable population (n = 53)
[4] = of 18 patients with C-finding at baseline, response-evaluable population (n = 53)
[5] = response-evaluable population (n = 53)

Cn1cc(-c2cc3c(N4CCN(c5ncc([C@@](C)(N)c6ccc(F)cc6)cn5)CC4)ncnn3c2)cn1 [avapritinib]
Clinical improvement rate (53 response-evaluable patients): 6%
Partial remission (PR) rate (53 response-evaluable patients): 34%
CR or CRh rate [1]: 36%
Overall response rate (ORR; CR/CRh/PR/CI) [1]: 75%
Best response CI (clinical improvement) (ASM (n = 3)): 0 n (%)
Best response CR (ASM (n = 3)): 0 n (%)
Best response CR or CRh (ASM (n = 3)): 2 (67) n (%)
Best response CRh (ASM (n = 3)): 2 (67) n (%)
Best response NE (not evaluable) (ASM (n = 3)): 0 n (%)
Best response PD (ASM (n = 3)): 0 n (%)
Best response PR (ASM (n = 3)): 1 (33) n (%)
Best response SD (ASM (n = 3)): 0 n (%)
ORR (CR + CRh + PR + CI) (ASM (n = 3)): 3 (100) n (%)
Best response CI (clinical improvement) (All AdvSM (n = 53)): 3 (6) n (%)
Best response CR (All AdvSM (n = 53)): 8 (15) n (%)
Best response CR or CRh (All AdvSM (n = 53)): 19 (36) n (%)
Best response CRh (All AdvSM (n = 53)): 11 (21) n (%)
Best response NE (not evaluable) (All AdvSM (n = 53)): 1 (2) n (%)
Best response PD (All AdvSM (n = 53)): 0 n (%)
Best response PR (All AdvSM (n = 53)): 18 (34) n (%)
Best response SD (All AdvSM (n = 53)): 12 (23) n (%)
ORR (CR + CRh + PR + CI) (All AdvSM (n = 53)): 40 (75) n (%)
Best response CI (clinical improvement) (Any prior therapy (n = 32)): 2 (6) n (%)
Best response CR (Any prior therapy (n = 32)): 4 (13) n (%)
Best response CR or CRh (Any prior therapy (n = 32)): 9 (28) n (%)
Best response CRh (Any prior therapy (n = 32)): 5 (16) n (%)
Best response NE (not evaluable) (Any prior therapy (n = 32)): 1 (3) n (%)
Best response PD (Any prior therapy (n = 32)): 0 n (%)
Best response PR (Any prior therapy (n = 32)): 11 (34) n (%)
Best response SD (Any prior therapy (n = 32)): 9 (28) n (%)
ORR (CR + CRh + PR + CI) (Any prior therapy (n = 32)): 22 (69) n (%)
Best response CI (clinical improvement) (MCL (n = 13)): 2 (15) n (%)
Best response CR (MCL (n = 13)): 3 (23) n (%)
Best response CR or CRh (MCL (n = 13)): 3 (23) n (%)
Best response CRh (MCL (n = 13)): 0 n (%)
Best response NE (not evaluable) (MCL (n = 13)): 0 n (%)
Best response PD (MCL (n = 13)): 0 n (%)
Best response PR (MCL (n = 13)): 4 (31) n (%)
Best response SD (MCL (n = 13)): 4 (31) n (%)
ORR (CR + CRh + PR + CI) (MCL (n = 13)): 9 (69) n (%)
Best response CI (clinical improvement) (Midostaurin naïve (n = 36)): 2 (6) n (%)
Best response CR (Midostaurin naïve (n = 36)): 6 (17) n (%)
Best response CR or CRh (Midostaurin naïve (n = 36)): 16 (44) n (%)
Best response CRh (Midostaurin naïve (n = 36)): 10 (28) n (%)
Best response NE (not evaluable) (Midostaurin naïve (n = 36)): 0 n (%)
Best response PD (Midostaurin naïve (n = 36)): 0 n (%)
Best response PR (Midostaurin naïve (n = 36)): 12 (33) n (%)
Best response SD (Midostaurin naïve (n = 36)): 6 (17) n (%)
ORR (CR + CRh + PR + CI) (Midostaurin naïve (n = 36)): 30 (83) n (%)
Best response CI (clinical improvement) (No prior therapy (n = 21)): 1 (5) n (%)
Best response CR (No prior therapy (n = 21)): 4 (19) n (%)
Best response CR or CRh (No prior therapy (n = 21)): 10 (48) n (%)
Best response CRh (No prior therapy (n = 21)): 6 (29) n (%)
Best response NE (not evaluable) (No prior therapy (n = 21)): 0 n (%)
Best response PD (No prior therapy (n = 21)): 0 n (%)
Best response PR (No prior therapy (n = 21)): 7 (33) n (%)
Best response SD (No prior therapy (n = 21)): 3 (14) n (%)
ORR (CR + CRh + PR + CI) (No prior therapy (n = 21)): 18 (86) n (%)
Best response CI (clinical improvement) [2]: 1 (6) n (%)
Best response CR [2]: 2 (12) n (%)
Best response CR or CRh [2]: 3 (18) n (%)
Best response CRh [2]: 1 (6) n (%)
Best response NE (not evaluable) [2]: 1 (6) n (%)
Best response PD [2]: 0 n (%)
Best response PR [2]: 6 (35) n (%)
Best response SD [2]: 6 (35) n (%)
ORR (CR + CRh + PR + CI) [2]: 10 (59) n (%)
Best response CI (clinical improvement) (SM-AHN (n = 37)): 1 (3) n (%)
Best response CR (SM-AHN (n = 37)): 5 (14) n (%)
Best response CR or CRh (SM-AHN (n = 37)): 14 (38) n (%)
Best response CRh (SM-AHN (n = 37)): 9 (24) n (%)
Best response NE (not evaluable) (SM-AHN (n = 37)): 1 (3) n (%)
Best response PD (SM-AHN (n = 37)): 0 n (%)
Best response PR (SM-AHN (n = 37)): 13 (35) n (%)
Best response SD (SM-AHN (n = 37)): 8 (22) n (%)
ORR (CR + CRh + PR + CI) (SM-AHN (n = 37)): 28 (76) n (%)
Median time to achieve CR/CRh (all starting doses): 9 months
Median time to achieve PR or better (CR/CRh/PR) (all starting doses, range, 2–27 months): 2 months
CR rate (midostaurin-naïve patients (6/36)): 17%
CRh rate (midostaurin-naïve patients (10/36)): 28%
CR/CRh rate (midostaurin-naïve patients (16/36)): 44%
ORR (midostaurin-naïve patients (30/36)): 83%
Patients with clinical improvement in C-finding: thrombocytopenia, transfusion dependent (of 1 patient with C-finding at baseline, response-evaluable population (n = 53)): 0 (0) n (%)
Patients with clinical improvement in C-finding: anemia, transfusion dependent [3]: 1 (50) n (%)
Patients with clinical improvement in C-finding: pleural effusions [3]: 2 (100) n (%)
Patients with clinical improvement in C-finding: neutropenia (of 3 patients with C-finding at baseline, response-evaluable population (n = 53)): 0 (0) n (%)
Patients with clinical improvement in C-finding: direct bilirubin >1.5 × ULN (of 6 patients with C-finding at baseline, response-evaluable population (n = 53)): 1 (17) n (%)
Patients with clinical improvement in C-finding: hypoalbuminemia (of 7 patients with C-finding at baseline, response-evaluable population (n = 53)): 4 (57) n (%)
Patients with clinical improvement in C-finding: ascites (of 10 patients with C-finding at baseline, response-evaluable population (n = 53)): 4 (40) n (%)
Patients with clinical improvement in C-finding: anemia, transfusion independent (of 15 patients with C-finding at baseline, response-evaluable population (n = 53)): 3 (20) n (%)
Patients with clinical improvement in C-finding: ALP >2.5 × ULN [4]: 12 (67) n (%)
Patients with clinical improvement in C-finding: thrombocytopenia, transfusion independent [4]: 4 (22) n (%)
Patients with clinical improvement in C-finding: splenomegaly ≥5 cm (of 28 patients with C-finding at baseline, response-evaluable population (n = 53)): 24 (86) n (%)
ORR (patients with co-mutations in S/A/R genes): 74%
ORR (patients with prior midostaurin exposure (10/17)): 59%
ORR (patients without S/A/R co-mutations): 77%
CRh rate (prior midostaurin exposure (1/17)): 6%
CR rate (prior midostaurin exposure (2/17)): 12%
CR/CRh rate (prior midostaurin exposure (3/17)): 18%
Median time to clinical improvement: ALP >2.5 × ULN [5]: 2.9 months
Median time to clinical improvement: anemia, transfusion dependent [5]: 0.3 months
Median time to clinical improvement: anemia, transfusion independent [5]: 3.7 months
Median time to clinical improvement: ascites [5]: 7.4 months
Median time to clinical improvement: direct bilirubin >1.5 × ULN [5]: 8.3 months
Median time to clinical improvement: hypoalbuminemia [5]: 3.3 months
Median time to clinical improvement: pleural effusions [5]: 1.9 months
Median time to clinical improvement: splenomegaly ≥5 cm [5]: 1.9 months
Median time to clinical improvement: thrombocytopenia, transfusion independent [5]: 3.1 months
Median time to PR or better (CR/CRh/PR) (starting doses of 200, 300 or 400 mg (≥200 mg QD)): 2 months
